Measured values: ChEMBL document CHEMBL4507257, “Data for DCP probe ABT-100” (2021)

How the values were obtained:
[1] = target: cAMP-dependent protein kinase catalytic subunit alpha (Homo sapiens) (UniProt P17612); conditions: Compound concentration 1000.0 nM
[2] = target: Casein kinase II subunit alpha' (Homo sapiens) (UniProt P19784); conditions: Compound concentration 1000.0 nM
[3] = target: Mitogen-activated protein kinase kinase kinase 2 (Homo sapiens) (UniProt Q9Y2U5); conditions: Compound concentration 1000.0 nM
[4] = target: Testis-specific serine/threonine-protein kinase 1 (Homo sapiens) (UniProt Q9BXA7); conditions: Compound concentration 1000.0 nM
[5] = target: Serine/threonine-protein kinase MARK1 (Homo sapiens) (UniProt Q9P0L2); conditions: Compound concentration 1000.0 nM
[6] = target: Tyrosine-protein kinase Fes/Fps (Homo sapiens) (UniProt P07332); conditions: Compound concentration 1000.0 nM
[7] = test system: Epidermal growth factor receptor (Homo sapiens), P00533 [UNDEFINED MUTATION]; conditions: Compound concentration 1000.0 nM
[8] = test system: Proto-oncogene tyrosine-protein kinase receptor Ret (Homo sapiens), P07949 [V804L]; conditions: Compound concentration 1000.0 nM
[9] = target: Histamine H3 receptor (Homo sapiens) (UniProt Q9Y5N1); conditions: Compound concentration 10.0 uM
[10] = target: Sodium-dependent noradrenaline transporter (Homo sapiens) (UniProt P23975); conditions: Compound concentration 10.0 uM
[11] = target: Macrophage colony-stimulating factor 1 receptor (Homo sapiens) (UniProt P07333); conditions: Compound concentration 1000.0 nM
[12] = target: Tyrosine-protein kinase ABL1 (Homo sapiens) (UniProt P00519); conditions: Compound concentration 1000.0 nM
[13] = target: Kappa-type opioid receptor (Homo sapiens) (UniProt P41145); conditions: Compound concentration 10.0 uM
[14] = target: Mitogen-activated protein kinase 11 (Homo sapiens) (UniProt Q15759); conditions: Compound concentration 1000.0 nM
[15] = target: Serine/threonine-protein kinase DCLK3 (Homo sapiens) (UniProt Q9C098); conditions: Compound concentration 1000.0 nM
[16] = target: Tyrosine-protein kinase Mer (Homo sapiens) (UniProt Q12866); conditions: Compound concentration 1000.0 nM
[17] = target: Cyclin-dependent kinase-like 5 (Homo sapiens) (UniProt O76039); conditions: Compound concentration 1000.0 nM
[18] = target: Serine/threonine-protein kinase tousled-like 2 (Homo sapiens) (UniProt Q86UE8); conditions: Compound concentration 1000.0 nM
Serine/threonine-protein kinase tousled-like 2 (Homo sapiens), sequence (Q86UE8 whole entry, looked up): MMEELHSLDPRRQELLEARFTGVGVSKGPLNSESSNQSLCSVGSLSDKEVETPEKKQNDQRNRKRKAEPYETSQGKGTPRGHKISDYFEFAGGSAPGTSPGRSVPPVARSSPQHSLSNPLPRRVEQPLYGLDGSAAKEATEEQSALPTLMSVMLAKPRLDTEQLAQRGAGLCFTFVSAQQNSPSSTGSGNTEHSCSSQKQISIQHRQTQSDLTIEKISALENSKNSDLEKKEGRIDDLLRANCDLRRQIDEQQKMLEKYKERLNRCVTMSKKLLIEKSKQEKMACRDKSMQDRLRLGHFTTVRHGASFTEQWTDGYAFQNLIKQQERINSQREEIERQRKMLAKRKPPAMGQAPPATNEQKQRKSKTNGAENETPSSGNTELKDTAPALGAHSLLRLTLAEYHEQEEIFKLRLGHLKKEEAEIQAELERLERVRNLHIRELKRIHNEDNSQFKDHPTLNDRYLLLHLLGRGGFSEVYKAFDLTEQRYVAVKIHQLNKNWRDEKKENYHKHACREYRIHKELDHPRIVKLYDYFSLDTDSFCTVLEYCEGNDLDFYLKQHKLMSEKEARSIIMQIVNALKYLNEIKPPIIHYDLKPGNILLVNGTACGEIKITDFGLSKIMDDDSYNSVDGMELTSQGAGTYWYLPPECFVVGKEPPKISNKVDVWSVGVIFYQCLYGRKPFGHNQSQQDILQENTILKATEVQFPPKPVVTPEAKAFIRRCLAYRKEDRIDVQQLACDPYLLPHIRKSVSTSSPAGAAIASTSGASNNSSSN

[19] = target: Serine/threonine-protein kinase Chk2 (Homo sapiens) (UniProt O96017); conditions: Compound concentration 1000.0 nM
Serine/threonine-protein kinase Chk2 (Homo sapiens), sequence (O96017 whole entry): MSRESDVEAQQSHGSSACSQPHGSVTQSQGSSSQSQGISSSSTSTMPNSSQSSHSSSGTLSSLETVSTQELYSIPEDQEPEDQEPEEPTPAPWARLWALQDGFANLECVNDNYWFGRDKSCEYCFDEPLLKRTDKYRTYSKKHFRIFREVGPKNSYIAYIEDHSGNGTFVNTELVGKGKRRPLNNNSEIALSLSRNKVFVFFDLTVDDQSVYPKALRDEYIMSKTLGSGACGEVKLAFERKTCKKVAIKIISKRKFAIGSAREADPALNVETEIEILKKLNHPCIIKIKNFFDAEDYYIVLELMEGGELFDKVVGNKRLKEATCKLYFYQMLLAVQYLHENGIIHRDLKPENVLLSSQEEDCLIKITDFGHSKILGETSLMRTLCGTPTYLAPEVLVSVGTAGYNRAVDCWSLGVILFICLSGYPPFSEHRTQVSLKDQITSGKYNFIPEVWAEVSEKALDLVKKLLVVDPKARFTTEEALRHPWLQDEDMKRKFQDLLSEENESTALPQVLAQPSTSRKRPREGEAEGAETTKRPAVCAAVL

[20] = test system: Epidermal growth factor receptor (Homo sapiens), P00533 [L858R]; conditions: Compound concentration 1000.0 nM
[21] = target: SRSF protein kinase 2 (Homo sapiens) (UniProt P78362); conditions: Compound concentration 1000.0 nM
[22] = target: Dual specificity tyrosine-phosphorylation-regulated kinase 2 (Homo sapiens) (UniProt Q92630); conditions: Compound concentration 1000.0 nM
[23] = target: Ephrin type-A receptor 7 (Homo sapiens) (UniProt Q15375); conditions: Compound concentration 1000.0 nM
[24] = target: Myosin-IIIa (Homo sapiens) (UniProt Q8NEV4); conditions: Compound concentration 1000.0 nM
Myosin-IIIa (Homo sapiens), sequence (Q8NEV4 whole entry): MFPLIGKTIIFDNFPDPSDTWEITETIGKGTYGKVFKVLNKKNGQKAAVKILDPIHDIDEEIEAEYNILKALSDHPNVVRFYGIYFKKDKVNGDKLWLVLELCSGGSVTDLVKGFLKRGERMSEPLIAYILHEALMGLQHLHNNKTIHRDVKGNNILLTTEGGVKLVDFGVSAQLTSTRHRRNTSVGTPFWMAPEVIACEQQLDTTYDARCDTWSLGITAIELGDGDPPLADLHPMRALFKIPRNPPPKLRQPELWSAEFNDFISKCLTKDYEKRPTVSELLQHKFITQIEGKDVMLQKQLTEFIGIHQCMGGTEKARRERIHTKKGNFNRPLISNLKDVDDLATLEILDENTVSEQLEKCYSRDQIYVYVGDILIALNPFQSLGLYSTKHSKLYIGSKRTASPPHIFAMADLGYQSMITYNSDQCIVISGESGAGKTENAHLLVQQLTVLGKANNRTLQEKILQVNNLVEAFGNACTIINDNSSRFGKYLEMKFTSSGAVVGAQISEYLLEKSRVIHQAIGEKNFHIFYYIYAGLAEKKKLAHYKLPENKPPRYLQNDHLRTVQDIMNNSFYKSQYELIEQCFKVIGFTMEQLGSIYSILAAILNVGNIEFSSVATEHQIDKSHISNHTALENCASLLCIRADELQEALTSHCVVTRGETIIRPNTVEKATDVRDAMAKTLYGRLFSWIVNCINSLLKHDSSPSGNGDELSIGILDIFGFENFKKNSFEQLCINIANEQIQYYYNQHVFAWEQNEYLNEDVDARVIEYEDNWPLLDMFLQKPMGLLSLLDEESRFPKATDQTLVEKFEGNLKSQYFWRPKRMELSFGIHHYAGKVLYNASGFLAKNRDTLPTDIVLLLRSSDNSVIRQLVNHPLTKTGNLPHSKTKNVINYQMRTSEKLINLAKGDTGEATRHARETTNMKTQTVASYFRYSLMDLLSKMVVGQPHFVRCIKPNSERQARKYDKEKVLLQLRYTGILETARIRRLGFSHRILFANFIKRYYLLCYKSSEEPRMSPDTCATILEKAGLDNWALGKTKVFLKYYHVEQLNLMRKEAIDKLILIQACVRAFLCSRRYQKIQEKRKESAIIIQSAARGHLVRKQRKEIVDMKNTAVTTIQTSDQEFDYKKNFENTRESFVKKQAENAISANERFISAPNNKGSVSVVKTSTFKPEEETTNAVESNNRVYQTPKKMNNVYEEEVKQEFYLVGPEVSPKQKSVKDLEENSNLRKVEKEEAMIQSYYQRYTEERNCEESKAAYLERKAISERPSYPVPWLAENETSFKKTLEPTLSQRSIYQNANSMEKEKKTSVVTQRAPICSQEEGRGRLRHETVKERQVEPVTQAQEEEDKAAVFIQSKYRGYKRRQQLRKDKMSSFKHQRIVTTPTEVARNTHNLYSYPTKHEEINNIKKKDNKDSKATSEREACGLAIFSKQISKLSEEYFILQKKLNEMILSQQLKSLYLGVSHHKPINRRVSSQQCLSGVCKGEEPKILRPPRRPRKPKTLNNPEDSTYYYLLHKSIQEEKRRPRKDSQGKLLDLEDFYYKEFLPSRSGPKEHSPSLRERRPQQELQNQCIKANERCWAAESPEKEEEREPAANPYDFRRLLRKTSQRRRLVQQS

[25] = target: Receptor-type tyrosine-protein kinase FLT3 (Homo sapiens) (UniProt P36888); conditions: Compound concentration 1000.0 nM
[26] = target: Mitogen-activated protein kinase kinase kinase kinase 4 (Homo sapiens) (UniProt O95819); conditions: Compound concentration 1000.0 nM
[27] = target: Phosphatidylinositol 3-kinase C2 domain-containing subunit gamma (Homo sapiens) (UniProt O75747); conditions: Compound concentration 1000.0 nM
[28] = target: Dual specificity mitogen-activated protein kinase kinase 5 (Homo sapiens) (UniProt Q13163); conditions: Compound concentration 1000.0 nM
[29] = target: Tyrosine-protein kinase Tec (Homo sapiens) (UniProt P42680); conditions: Compound concentration 1000.0 nM
[30] = target: Tyrosine-protein kinase Lyn (Homo sapiens) (UniProt P07948); conditions: Compound concentration 1000.0 nM
[31] = target: Interleukin-1 receptor-associated kinase 1 (Homo sapiens) (UniProt P51617); conditions: Compound concentration 1000.0 nM
[32] = target: Protein kinase C delta type (Homo sapiens) (UniProt Q05655); conditions: Compound concentration 1000.0 nM
Protein kinase C delta type (Homo sapiens), sequence (Q05655 whole entry, looked up, canonical isoform): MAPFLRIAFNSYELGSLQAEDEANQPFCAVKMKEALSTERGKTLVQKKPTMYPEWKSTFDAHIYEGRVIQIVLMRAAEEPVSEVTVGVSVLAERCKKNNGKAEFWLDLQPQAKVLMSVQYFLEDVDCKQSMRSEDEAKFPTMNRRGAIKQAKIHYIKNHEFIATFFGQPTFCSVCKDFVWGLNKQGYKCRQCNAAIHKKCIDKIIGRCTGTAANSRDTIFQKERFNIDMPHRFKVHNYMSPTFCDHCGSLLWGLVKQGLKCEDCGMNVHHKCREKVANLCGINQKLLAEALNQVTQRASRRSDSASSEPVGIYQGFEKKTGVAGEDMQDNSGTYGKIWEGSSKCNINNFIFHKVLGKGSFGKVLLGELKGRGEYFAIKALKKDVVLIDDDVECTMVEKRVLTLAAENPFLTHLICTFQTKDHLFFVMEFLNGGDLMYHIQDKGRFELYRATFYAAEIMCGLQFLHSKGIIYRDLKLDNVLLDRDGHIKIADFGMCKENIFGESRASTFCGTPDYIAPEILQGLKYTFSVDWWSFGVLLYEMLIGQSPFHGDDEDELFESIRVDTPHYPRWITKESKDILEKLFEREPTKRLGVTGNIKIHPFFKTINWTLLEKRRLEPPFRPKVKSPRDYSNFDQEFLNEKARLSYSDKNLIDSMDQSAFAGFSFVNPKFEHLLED

[33] = target: Casein kinase I isoform alpha (Homo sapiens) (UniProt P48729); conditions: Compound concentration 1000.0 nM
[34] = target: Ephrin type-B receptor 2 (Homo sapiens) (UniProt P29323); conditions: Compound concentration 1000.0 nM
[35] = test system: Epidermal growth factor receptor (Homo sapiens), P00533 [UNDEFINED MUTATION]; conditions: Compound concentration 1000.0 nM; remark: listed apart in the source
[36] = test system: Tyrosine-protein kinase ABL1 (Homo sapiens), P00519 [M351T]; conditions: Compound concentration 1000.0 nM
[37] = test system: Tyrosine-protein kinase ABL1 (Homo sapiens), P00519 [Y253F]; conditions: Compound concentration 1000.0 nM
[38] = test system: Tyrosine-protein kinase ABL1 (Homo sapiens), P00519 [F317L]; conditions: Compound concentration 1000.0 nM
[39] = target: Interleukin-1 receptor-associated kinase 3 (Homo sapiens) (UniProt Q9Y616); conditions: Compound concentration 1000.0 nM
[40] = target: Serine/threonine-protein kinase BRSK1 (Homo sapiens) (UniProt Q8TDC3); conditions: Compound concentration 1000.0 nM
[41] = target: Serine/threonine-protein kinase RIO3 (Homo sapiens) (UniProt O14730); conditions: Compound concentration 1000.0 nM
Serine/threonine-protein kinase RIO3 (Homo sapiens), sequence (O14730 whole entry): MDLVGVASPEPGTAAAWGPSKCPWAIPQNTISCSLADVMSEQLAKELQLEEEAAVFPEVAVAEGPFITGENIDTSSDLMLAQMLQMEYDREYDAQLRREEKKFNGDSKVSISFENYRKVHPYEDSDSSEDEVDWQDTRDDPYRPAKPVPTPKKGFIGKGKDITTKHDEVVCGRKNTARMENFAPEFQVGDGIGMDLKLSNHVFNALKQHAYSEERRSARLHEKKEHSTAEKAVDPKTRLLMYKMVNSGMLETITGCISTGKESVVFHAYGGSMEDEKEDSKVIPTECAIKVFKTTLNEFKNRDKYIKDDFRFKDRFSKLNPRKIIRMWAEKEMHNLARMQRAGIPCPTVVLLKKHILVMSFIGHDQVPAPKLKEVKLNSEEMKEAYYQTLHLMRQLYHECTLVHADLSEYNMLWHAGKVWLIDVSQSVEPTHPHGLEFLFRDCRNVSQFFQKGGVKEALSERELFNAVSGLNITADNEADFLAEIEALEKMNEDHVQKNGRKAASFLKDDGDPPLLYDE

[42] = target: RAC-gamma serine/threonine-protein kinase (Homo sapiens) (UniProt Q9Y243); conditions: Compound concentration 1000.0 nM
[43] = target: Tyrosine-protein kinase JAK3 (Homo sapiens) (UniProt P52333); conditions: Compound concentration 1000.0 nM
[44] = target: Dual specificity mitogen-activated protein kinase kinase 6 (Homo sapiens) (UniProt P52564); conditions: Compound concentration 1000.0 nM
Dual specificity mitogen-activated protein kinase kinase 6 (Homo sapiens), sequence (P52564 whole entry): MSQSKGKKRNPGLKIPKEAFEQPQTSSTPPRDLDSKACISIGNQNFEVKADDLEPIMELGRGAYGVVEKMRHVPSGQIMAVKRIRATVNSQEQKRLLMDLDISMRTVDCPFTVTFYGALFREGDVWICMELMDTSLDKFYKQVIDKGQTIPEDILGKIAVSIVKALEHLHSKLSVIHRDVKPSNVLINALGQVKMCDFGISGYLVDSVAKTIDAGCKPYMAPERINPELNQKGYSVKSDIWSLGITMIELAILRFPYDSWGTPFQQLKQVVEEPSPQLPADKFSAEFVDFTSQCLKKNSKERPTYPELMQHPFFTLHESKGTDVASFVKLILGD

[45] = target: Activin receptor type-2B (Homo sapiens) (UniProt Q13705); conditions: Compound concentration 1000.0 nM
Activin receptor type-2B (Homo sapiens), sequence (Q13705 whole entry): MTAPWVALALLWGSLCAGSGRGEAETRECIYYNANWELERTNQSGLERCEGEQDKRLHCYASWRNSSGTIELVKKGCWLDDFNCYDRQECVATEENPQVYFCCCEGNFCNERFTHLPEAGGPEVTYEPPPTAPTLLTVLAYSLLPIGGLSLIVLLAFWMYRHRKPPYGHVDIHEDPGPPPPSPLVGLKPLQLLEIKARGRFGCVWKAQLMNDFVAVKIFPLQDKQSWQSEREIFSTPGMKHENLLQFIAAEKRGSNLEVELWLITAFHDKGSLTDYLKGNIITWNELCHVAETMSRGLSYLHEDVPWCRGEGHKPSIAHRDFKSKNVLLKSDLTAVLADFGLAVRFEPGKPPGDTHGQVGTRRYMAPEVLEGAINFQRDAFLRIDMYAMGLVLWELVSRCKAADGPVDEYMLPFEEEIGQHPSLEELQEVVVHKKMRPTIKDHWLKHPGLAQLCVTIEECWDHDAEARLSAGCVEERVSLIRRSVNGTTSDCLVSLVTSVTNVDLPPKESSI

`Cn1cncc1[C@](O)(COc1ccc(C#N)cc1-c1ccc(OC(F)(F)F)cc1)c1ccc(C#N)cc1` [ABT-100] was tested, and the residual activity [1] was 81%, the residual activity [2] was 100% and the residual activity [3] was 77%. The residual activity [4] was 100%, the residual activity [5] was 57% and the residual activity [6] was 100%. For the same compound, the residual activity [7] was 78%, the residual activity [8] was 82% and the inhibition [9] was 5.92%. For the same compound, the inhibition [10] was 21.7%, the residual activity [11] was 94% and the residual activity [12] was 100%. It also gave an inhibition [13] of -7.18%, a residual activity [14] of 90% and a residual activity [15] of 99%. The residual activity [16] was 84%, the residual activity [17] was 100% and the residual activity [18] was 100%. The residual activity [19] was 100%, the residual activity [20] was 86% and the residual activity [21] was 100%. For the same compound, the residual activity [22] was 52%, the residual activity [23] was 91% and the residual activity [24] was 100%. It also gave a residual activity [25] of 100%, a residual activity [26] of 100% and a residual activity [27] of 81%. For the same compound, the residual activity [28] was 83%, the residual activity [29] was 93% and the residual activity [30] was 90%. It also gave a residual activity [31] of 83%, a residual activity [32] of 66% and a residual activity [33] of 100%. For the same compound, the residual activity [34] was 94%, the residual activity [35] was 93% and the residual activity [36] was 100%. For the same compound, the residual activity [37] was 94%, the residual activity [38] was 100% and the residual activity [39] was 71%. It also gave a residual activity [40] of 73%, a residual activity [41] of 95% and a residual activity [42] of 100%. It also gave a residual activity [43] of 72%, a residual activity [44] of 76% and a residual activity [45] of 100%.

In the case of `Cn1cncc1[C@@](O)(COc1ccc(C#N)cc1-c1ccc(OC(F)(F)F)cc1)c1ccc(C#N)cc1` [A-108], the residual activity [1] is reported as 94%, the residual activity [2] is reported as 100% and the residual activity [3] is reported as 100%. The residual activity [4] was 70%, the residual activity [5] was 100% and the residual activity [6] was 100%. The residual activity [7] was 100%, the residual activity [8] was 89% and the inhibition [9] was 17.8%. It also gave an inhibition [10] of 5.18%, a residual activity [11] of 85% and a residual activity [12] of 95%. It also gave an inhibition [13] of 1.27%, a residual activity [14] of 96% and a residual activity [15] of 94%. For the same compound, the residual activity [16] was 69%, the residual activity [17] was 93% and the residual activity [18] was 97%. For the same compound, the residual activity [19] was 96%, the residual activity [20] was 100% and the residual activity [21] was 55%. The residual activity [22] was 89%, the residual activity [23] was 100% and the residual activity [24] was 98%. It also gave a residual activity [25] of 100%, a residual activity [26] of 100% and a residual activity [27] of 61%. For the same compound, the residual activity [28] was 88%, the residual activity [29] was 100% and the residual activity [30] was 100%. The residual activity [31] was 73%, the residual activity [32] was 100% and the residual activity [33] was 78%. For the same compound, the residual activity [34] was 100%, the residual activity [35] was 100% and the residual activity [36] was 6.2%. It also gave a residual activity [37] of 92%, a residual activity [38] of 100% and a residual activity [39] of 91%. For the same compound, the residual activity [40] was 86%, the residual activity [41] was 90% and the residual activity [42] was 100%. The residual activity [43] was 100%, the residual activity [44] was 94% and the residual activity [45] was 100%.
